Measurements as given in patent US12527782B2, “Use of hexokinase 2/mitochondria-detaching compounds for treating hexokinase-2 (HK2)-expressing cancers” (Vidac Pharma Ltd., priority 2016, dated 2026).

Experiments:
HeLa cells [1] = assay: Apoptosis induction in HeLa cells (FACS, propidium iodide and annexin V); assay type: cell-based; settings: Homo sapiens, 48 hr incubation
Method: FIG. 12. Apoptosis induction in HeLa cells following 48 hr incubation with Compound (1) IC50=70 nM. Apoptosis was evaluated by FACS, labeling the cells with propidium iodide and annexin V.
FIG. 13. Apoptosis induction in HeLa cells following 48 hr incubation with Compound (1). IC50=70 nM. Apoptosis was evaluated by FACS, labeling the cells with propidium iodide and annexin V.

HeLa cells [2] = assay: Lactate levels in culture media of HeLa cells (BioVision kit); assay type: cell-based; settings: 20 μM
Method: FIG. 14. Lactate levels in the culture media of HeLa cells incubated with 20 μM Compound (1). Lactate levels were assayed with a BioVision kit (Catalog #K607-100).

O=C(N1CCN(c2ccccc2)CC1)N1c2ccccc2Oc2ccccc21 [Compound (1)]
IC50 (HeLa cells [1]): 70 nM | lactate levels in the culture media (HeLa cells [2]): lowered lactate levels
